Data taken from patent US20060088897A1, “Modulators” (priority 2003, published 2006).
Entries after “also recorded” stand apart in the source; their conditions may differ.

What was measured:
Format in all cases: cell-based
N1E-115 cells [1] = assay: Microinjection of peptides into partially serum starved N1E-115 cells, phalloidin staining and confocal microscopy of cell morphology; details: for effect on formation of lamellipodia, filopodia or neurites concluded from microinjection: FIG. 8A; for cell morphology after peptide microinjection: peptide injected at 10 μg/ml, cells serum starved 2-4 h, FIG. 7A, 8A
Procedure: Cells are starved for 2-3 h and then either injected with peptides (10 μg/ml) or exposed to peptides with bioporter reagent. Cells are incubated for a further 2 h before being stained with phalloiden and examined by confocal microscopy (as described in the materials and methods section). (A) The upper cells is injected with αP1 (a), or all cells injected with αP1*(b), or exposed to αP2 with bioporter reagent (c). […] Results are expressed as means+/−SEM of 3 experiments (n=333-426 cells). […] (D) Cells are exposed to bioporter reagent with αP2 and after 6 h double stained with αPAK and vinculin antibodies; (a) Vinculin/αPAK, (b) Vinculin and (c) αPAK. Bar=10 μM. Control bars are with IgG with bioporter/microinjection.
(§1) Cells are starved for 2-3 h and then injected with peptides. Cells are then incubated for 2 h before being stained with phalloiden and examined by confocal microscopy (as described in the materials and methods section). (A) Cells are injected with IgG (a), with αP2 (b), with βP2 (c) and γP2 (d). Bar=10 μM. (B) Cells are exposed to bioporter with peptides and presence of neurites, pronounced filopodia and pronounced lamellipodia/ruffles scored (definitions as in FIG. 7). (C) Cells are either exposed to bioporter reagent coated peptides (αP2 and βP2) and then IGF or serum starvation used to activate cells. For γP2 cells are injected with peptide and stimulated with serum. Filopodia and lamellipodia are scored by using time-lapse phase contrast microscopy. +/−SEM of 3 experiments (n=900). Control peptide is taken from the kinase domain and common to the three PAK isoforms.
Cells are plated out at 1.0×10^5 cells in 1 ml in a 35 mm dish containing 2 laminin coated coverslips. The coverslips are first marked with a grid using a fine permanent marker and then coated with laminin and incubated overnight in DMEM, 10% FCS, 1% AB/AM. The media is replaced with serum free media (DMEM, 1% AB/AM) and the cells starved for 1 hour so that they flattened and are easier to inject. The peptides are injected at 10 μg/ml in PBS, Rat IgG at 1 mg/ml is added to act as a marker for injected cells.
The cells are injected using an Eppendorf microinjection apparatus on an Axioplan inverted microscope equipped with a heated stage maintained at 37° C. and a 5% CO2 chamber. Humidity is maintained by a dish of sterile water inside the CO2 chamber. Cells in a grid square are injected and positive injection checked visually at the time of injection or after fixation and staining for the injected marker. After injection the cells are returned to the incubator for a further 2 hours. Giving a total time without serum of 4 hours.
The only difference between these two peptides being that the latter peptide is phosphorylated on serine and this modification prevents it from binding Nck (Zhao et al., 1998). To investigate the effects of peptides we first serum starve the cells for 2-4 h to activate Cdc42Hs and Rac.

N1E-115 cells [2] = assay: Phase contrast time-lapse analysis of filopodia and lamellipodia formation in a gradient of IGF; details: followed for 60 min; FIG. 8C
Procedure: as §1
Time lapse microscopy is carried out on a heated stage (37° C.) in an atmosphere of humidified air and 5% CO2. Cells are video recorded using a, Axiovert 135 microscope, Palmix TM-6CN video camera and Sony-u-matic V0-5800 PS video recorder. Individual images are captured using Bio-rad COMOS software and manipulated with Adobe photoshop. Confocal microscopy is carried out using a LSM 410 Zeiss scanning microscope with 3 single line lasers at 488 nM (argon), 543 nM and 633 nM, (HeNe). […]

N1E-115 cells [3] = assay: Cell guidance assay at Laminin/CSPG boundary (axonal guidance); details: for neurite morphology: serum starved cells, FIG. 9A
Procedure: Effect of PAK peptides on neurite morphology. Cells are exposed to control peptide, αP 1*, αP2, βP2, or γP2 and neurite morphology assessed. (B) Cells are plated on coverslips that been treated to create a Laminin/CSGP boundary. After 6 h cells are examined for their ability to project neurites that crossed the substrate boundary. Cells exposed to bioporter coated peptides, (a) αP2, (b) βP2, and (c) γP2. […] Results are means+/−SEM (n=161-263). (C) Cells are exposed to peptides and after 6 h are scored for their ability to cross boundary from Laminin to CSPG.
The coverslips are washed and sterilised and then coated in one of the following ways.
A second layer of laminin is applied as a drop mixed with 1 μg/ml TRITC label. Coverslips are left for 1 hour at RT and then rinsed twice with sterile water before allowing to dry before use. (iii) Attractive/repulsive boundary. Slides are coated with CSPG 5 μg/ml for 1 hour at 37° C. in a humid chamber then rinsed once in sterile H2O and allowed to air dry before the drop of laminin at 10 μg/ml is applied to the centre of the coverslip and left for 1 hour at RT before rinsing twice in sterile water and allowing to dry before use. This coating is also done in reverse with the laminin applied first and then the tenascin or the CSPG applied second.
The cells are then seeded onto the prepared coverslips at 2×10^5 cells in 1 ml in a 35 mm petri dish, in DMEM, 10% FCS, and 1% AB/AM. Cells are allowed to attach overnight. The media is then removed and the coverslips rinsed in serum free media and incubated overnight (18 h) in serum free media. After the starvation the cells are fixed and stained to show the morphology of the cells at the boundary. Only neurites expressing neurofilamant are scored.
After 5 minutes, the cells are washed once with serum free DMEM media and then 1 ml of serum free DMEM is added to the tube containing the peptide and BioPorter mix it is vortexed gently before being added to the cells. The cells are incubated for 4 hours at 37° C. After the 4 hour incubation the cells are then incubated for a further 2 hours in 5% FCS DMEM or for cells undergoing a substrate guidance assay the 2 hour incubation is in serum free DMEM. The cells are fixed and stained.
Neurofilament positive neurites are scored for how they respond to Laminin/CSPG boundary. […] However, neurites do have distinct morphologies (FIG. 9A). Thus α, β and γ PAK are not essential for neurite outgrowth.

N1E-115 cells [4] = assay: Axonal guidance towards IGF (preliminary experiments); details: unpublished data
Description: In preliminary experiments we have also examined the effect of the PAK peptides on axonal guidance towards IGF in N1E-115 cells.

Bac1 macrophages = assay: Time lapse / microinjection analysis of Bac1 macrophage morphology (CSF, LPA gradients, C3 toxin)
Procedure: (A) Bac1 cells are grown (24 h) in four different ways and then stained with phalloidin to visualise F-actin. With serum alone (a), without CSF/serum (b), with CSF/serum (c), and with CSF alone (d). (B) Cells are starved of CSF for 24 h and then exposed to gradient of CSF (1.32 nM) through a needle. A time lapse sequence is shown over 30 min. (C) Bac1 macrophages are CSF/serum starved for 24 h and then exposed to a gradient of LPA through a needle. A time lapse sequence is shown over 10 min. (D) Bac1 macrophages starved for serum alone and then exposed to a gradient of CSF through a needle and LPA added to the medium. CSF is added in panel (b) followed by LPA. Panels c-f show process retraction on the side of the cell that is not protected by CSF. Arrows in (B) show the formation of filopodia. Arrows in (C) show process retraction. Bar=10 μM. […]
Proteins purified from E. coli and C3 toxin are microinjected in 50 MM Tris pH 7.5, 50 mM NaCl, 5 mM MgCl2 using an Eppendorf microinjector and Axiovert microscope. Successful injection is determined visually at the time of injection and by use of IgG. […]
Time lapse microscopy is carried out on a heated stage (37° C.) in an atmosphere of humidified air and 5% CO2. Cells are video recorded using a, Axiovert 135 microscope, Palmix TM-6CN video camera and Sony-u-matic V0-5800 PS video recorder. […]

Molecule	effect on formation of lamellipodia, filopodia or neurites concluded from microinjection (N1E-115 cells [1])	cell morphology after peptide microinjection (N1E-115 cells [1])	formation of lamellipodia in response to IGF gradient (N1E-115 cells [2])	ability to detect the Laminin/CSPG boundary (N1E-115 cells [3]; FIG. 9C)	neurite morphology (N1E-115 cells [3])	decision making process of moving towards IGF (N1E-115 cells [4])	effect on axonal guidance towards IGF (N1E-115 cells [4])	formation of filopodia in response to IGF gradient (N1E-115 cells [2])	neurites crossing over the Laminin/CSPG boundary (N1E-115 cells [3]; control approx. 10%, FIG. 9C)	protection from LPA mediated process collapse (Bac1 macrophages; CSF via needle, LPA added to medium after 1.5 min, FIG. 2D)	morphological response of Bac1 cells to a gradient of the factor (Bac1 macrophages; gradient through a needle, FIG. 2B, 2C)
SDSLDNEEKPPAPPLRMNSN [βP2, peptide derived from βPAK]	blocks lamellipodia formation	numerous filopodia along a newly formed leading edge with no lamellipodia	inhibit	not affected	branched and spiky with lamellipodia and ruffles inhibited	does slow down the decision making process	do not affect guidance				
SDNGELEDKPPAPPVRMSST [γP2, peptide derived from γPAK]	blocks filopodia formation	large fan-shaped lamellipodia with no filopodia		do not to recognize the boundary	smooth and flattened with fan shaped growth cones; also recorded: flattened growth cones and very few filopodia			inhibit	60-70%		
CSF: growth factor for Bac1 macrophages; activates Cdc42Hs and Rac1 (protein, UniProt P07141 33-552, looked up) Macrophage colony-stimulating …: KEVSEHCSHMIGNGHLKVLQQLIDSQMETSCQIAFEFVDQEQLDDPVCYLKKAFFLVQDIIDETMRFKDNTPNANATERLQELSNNLNSCFTKDYEEQNKACVRTFHETPLQLLEKIKNFFNETKNLLEKDWNIFTKNCNNSFAKCSSRDVVTKPDCNCLYPKATPSSDPASASPHQPPAPSMAPLAGLAWDDSQRTEGSSLLPSELPLRIEDPGSAKQRPPRSTCQTLESTEQPNHGDRLTEDSQPHPSAGGPVPGVEDILESSLGTNWVLEEASGEASEGFLTQEAKFSPSTPVGGSIQAETDRPRALSASPFPKSTEDQKPVDITDRPLTEVNPMRPIGQTQNNTPEKTDGTSTLREDHQEPGSPHIATPNPQRVSNSATPVAQLLLPKSHSWGIVLPLGELEGKRSTRDRRSPAELEGGSASEGAARPVARFNSIPLTDTGHVEQHEGSSDPQIPESVFHLLVPGIILVLLTVGGLLFYKWKWRSHRDPQTLDSSVGRPEDSSLTQDEDRQVELPV										can protect the process nearest to the source of CSF from LPA mediated process collapse	induces the formation of filopodia and lamellipodia
